According to patent publication US20240254119A1 (THIRD HARMONIC BIO, INC., priority 2022, published 2024):
pIC50: −log10 of the molar value.

Columns and labels:
wtKIT [1] = molecular target: T1, wtKIT (Homo sapiens, UniProt P10721); assay: Caliper biochemical assay, wtKIT; conditions: Table 6, read-out: KIT Biochemical IC50 avg
T1 construct: 1888289AM in the reaction mixtures
In short: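 Enzyme (5.0 nM wtKIT), 1 μM FAM-labelled peptide, 400 μM ATP and 10 mM MnCl2 in HEPES pH 7.5 with 1% DMSO, incubated 3 h at 25° C. EDTA quench; substrate and phosphoproduct separated by microfluidic electrophoresis and quantified by fluorescence.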

Kinetic solubility assay = assay type: physicochemical; conditions: kinetic solubility, 50 mM PB (pH 7.4), shaken 24 hours at RT
In short: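 Test compounds from 10 mM DMSO stock were diluted in 50 mM phosphate buffer, pH 7.4, and shaken for 24 h at RT. After PTFE filtration and centrifugation, filtrate concentration was quantified by UPLC-UV/HPLC-UV against a standard curve.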

CSF-1R [2] = molecular target: T2, CSF-1R (Homo sapiens, UniProt P07333); assay: HTRF biochemical assay, CSF-1R; conditions: Table 4
T2 construct: purchased Invitrogen PV3249 (lot 662393N)
T2 sequence (P07333 20-972): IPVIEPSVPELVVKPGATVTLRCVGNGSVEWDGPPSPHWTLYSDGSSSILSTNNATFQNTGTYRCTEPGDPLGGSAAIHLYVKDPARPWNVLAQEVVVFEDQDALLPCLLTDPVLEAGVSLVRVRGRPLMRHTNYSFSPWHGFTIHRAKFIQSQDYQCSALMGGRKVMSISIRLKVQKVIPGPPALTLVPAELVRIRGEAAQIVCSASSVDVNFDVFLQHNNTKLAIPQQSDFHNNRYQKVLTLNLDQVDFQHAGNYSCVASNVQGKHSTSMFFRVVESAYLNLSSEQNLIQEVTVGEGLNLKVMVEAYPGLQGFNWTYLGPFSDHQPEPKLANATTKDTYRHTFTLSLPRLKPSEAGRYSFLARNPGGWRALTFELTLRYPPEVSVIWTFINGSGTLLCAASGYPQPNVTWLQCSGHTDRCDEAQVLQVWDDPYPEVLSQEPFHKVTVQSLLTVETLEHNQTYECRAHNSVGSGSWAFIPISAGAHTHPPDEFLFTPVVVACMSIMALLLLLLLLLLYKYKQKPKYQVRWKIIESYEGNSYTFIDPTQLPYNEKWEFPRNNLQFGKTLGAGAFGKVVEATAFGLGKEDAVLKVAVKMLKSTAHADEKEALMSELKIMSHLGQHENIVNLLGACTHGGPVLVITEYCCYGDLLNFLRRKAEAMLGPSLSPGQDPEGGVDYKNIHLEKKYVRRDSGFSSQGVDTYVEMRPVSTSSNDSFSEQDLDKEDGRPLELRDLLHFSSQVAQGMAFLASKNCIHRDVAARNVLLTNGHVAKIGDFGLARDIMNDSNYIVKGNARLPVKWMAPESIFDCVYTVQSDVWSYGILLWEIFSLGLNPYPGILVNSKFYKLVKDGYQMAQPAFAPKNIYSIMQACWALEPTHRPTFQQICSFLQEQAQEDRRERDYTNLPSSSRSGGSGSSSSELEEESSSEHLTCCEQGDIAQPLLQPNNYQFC
Description: (§1) Exemplary compounds were tested for ability to inhibit the phosphorylation of a peptide substrate by the tyrosine kinase wt KIT, PDGFRα, or CSF-1R. Assay procedures and results are described below.
(§2) Enzyme, substrate, and cofactors (ATP and Mn^2+) are combined in a well of a microtiter plate and incubated for 3 hours at 25° C. At the end of the incubation, the reaction is quenched by the addition of an EDTA-containing buffer.
(§3) The substrate used in the CSF-1R and PDGFRα assay is FAM-[…]-CONH2 (FAM is carboxyfluorescein). Peptide should be >95% purity. The substrate for the KIT assay is FAM-[…]-NH2.
(§4) • 1. To a well of a 384-wellplate add 5 μL of 2× enzyme buffer (or control). • 2. Add 100 nL of 100× compound. Enzyme and compound may be pre-incubated at this time if desired. • 3. Add 5 μL of 2× substrate buffer. • 4. Incubate plate at 25° C. for 3 hours. • 5. Add 10 uL of anti-phosphotyrosine antibody buffer. • 6. Read plate in BioTek Synergy Reader. Reaction Conditions for wtKIT Assay

PDGFRα [3] = molecular target: T3, PDGFRα (Homo sapiens, UniProt P16234); assay: HTRF biochemical assay, PDGFRα; conditions: Table 4, read-out: PDFGRα Biochemical IC50 avg
T3 construct: purchased Millipore 14-467 (lot 26321_ACTI)
T3 sequence (P16234 24-1089): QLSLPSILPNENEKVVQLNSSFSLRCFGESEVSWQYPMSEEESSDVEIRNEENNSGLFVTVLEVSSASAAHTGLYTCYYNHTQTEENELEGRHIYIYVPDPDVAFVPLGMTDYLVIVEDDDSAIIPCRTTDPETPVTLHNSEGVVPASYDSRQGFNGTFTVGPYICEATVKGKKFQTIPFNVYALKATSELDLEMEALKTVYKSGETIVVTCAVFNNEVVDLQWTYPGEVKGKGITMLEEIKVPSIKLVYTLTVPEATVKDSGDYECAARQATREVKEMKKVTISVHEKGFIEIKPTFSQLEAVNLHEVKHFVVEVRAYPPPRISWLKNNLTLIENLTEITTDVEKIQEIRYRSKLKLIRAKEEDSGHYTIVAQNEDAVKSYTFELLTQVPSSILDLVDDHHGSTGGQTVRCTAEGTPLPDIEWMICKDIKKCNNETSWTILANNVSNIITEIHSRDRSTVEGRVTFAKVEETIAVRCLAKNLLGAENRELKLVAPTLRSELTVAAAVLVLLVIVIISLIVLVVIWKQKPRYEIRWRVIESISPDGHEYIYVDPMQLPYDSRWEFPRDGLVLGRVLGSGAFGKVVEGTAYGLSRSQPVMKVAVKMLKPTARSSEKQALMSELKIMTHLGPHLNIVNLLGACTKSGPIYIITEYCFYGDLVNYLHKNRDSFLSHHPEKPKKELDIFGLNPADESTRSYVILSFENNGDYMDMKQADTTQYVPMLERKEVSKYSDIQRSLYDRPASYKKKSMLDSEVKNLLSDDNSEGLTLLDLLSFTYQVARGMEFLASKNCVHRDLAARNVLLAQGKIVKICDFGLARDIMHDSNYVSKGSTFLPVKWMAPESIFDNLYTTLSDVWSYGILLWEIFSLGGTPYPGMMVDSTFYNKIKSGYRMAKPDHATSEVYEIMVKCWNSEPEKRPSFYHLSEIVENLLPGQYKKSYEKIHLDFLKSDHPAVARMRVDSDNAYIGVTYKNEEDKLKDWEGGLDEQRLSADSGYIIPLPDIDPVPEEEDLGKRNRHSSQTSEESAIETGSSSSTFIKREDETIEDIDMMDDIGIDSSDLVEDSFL
Description: as §1, §2, §3, §4

PDGFRα [4] = molecular target: T3, PDGFRα; assay: Caliper biochemical assay, PDGFRα; conditions: Table 6
In short: (§5)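 Kinase, FAM-labelled peptide substrate, ATP and Mn^2+ incubated with compound for 3 h at 25° C, then quenched with EDTA buffer. Substrate and phosphorylated product separated by microfluidic electrophoresis and quantified by fluorescence intensity; no-enzyme wells define 100% inhibition.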

CSF-1R [5] = molecular target: T2, CSF-1R; assay: Caliper biochemical assay, CSF-1R; conditions: Table 6
In short: as §5

wtKIT [6] = molecular target: T1, wtKIT; assay: HTRF biochemical assay, wtKIT (phosphorylation of a peptide substrate); conditions: Table 4
In short: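 wtKIT (5.0 nM) phosphorylating 1 µM FAM-labelled peptide with 400 µM ATP and 10 mM MnCl2 in 100 mM HEPES pH 7.5, 1% DMSO, 3 h at 25 °C. EDTA quench; phosphopeptide detected with anti-phosphotyrosine antibody by HTRF. Enzyme titrated for 10-20% substrate conversion.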

[7] = test system: KIT phosphorylation in M-07e cells; assay: Cell-based KIT phosphorylation in M-07e cells by pKIT ELISA; parameters: species or system human; conditions: SCF stimulation
Description: Exemplary compounds were tested for ability to inhibit KIT phosphorylation using M-07e cells as monitored by pKIT ELISA. M-07e cells are also represented as M-07E, M-07e, M07-e, M07e, Mo7e, MO7e, M07E and MO7E. Assay procedures and results are described below.
Part I—Procedures for Determining KIT Inhibition inM-07e Cells Using pKTT ELISA Reagents and consumables: • M-07e cells: Initially obtained from Accegen, cat #ABC-TC1313 • p-cKIT Capture ELISA antibody: anti-Human Phospho-CD117/c-kit, R&D cat #DYC3527-5 • Anti-pY-HIRP antibody: R&D cat #DYC3527-5 • 25× wash buffer: Quantikine ELISA Wash Buffer 1, R&D cat #WA126 • PBS: R&D cat #DY006 • 96 well ELISA plates: Clear Polystyrene Microplates, R&D Cat #DY990 • 96 well Tissue culture plates: Corning® 96 Well TC-Treated Microplates, cat #CLS3894 • RPMI medium: ATCC® RPMI-1640 Medium, Cat #30-2001 • FBS: Fetal Bovine Serum, certified, United States Gibco, Thermo-Fisher 16000044 • GM-CSF: Recombinant Human GM-CSF Protein, R&D cat #215-GM • SCF: Recombinant Human SCF Protein, R&D cat #255-SC
• 1. Prepare cells: • a. Culture M-07e cells in RPMI medium+20% serum+GM-CSF+penstrep • To make 50 mL of growth medium • i. 40 mL RPMI media • ii. 10 mL FBS • iii. 10 uL of GM-CSF (100 ug/mL stock) • iv. 0.5 mL pen strep (100×) • b. Harvest cells • c. Re-suspend cells in 100% RPMI media (without serum) to final concentration of 1 million cells/mL • d. Transfer 100 uL of cell solution to 11 columns of a 96 well flat bottom cell culture plate • e. Incubate cells over night at 37 C • 2. Prepare ELISA Plates: • a. Dilute capture antibody to concentration 4 ug/mL in PBS • b. Coat 96 well microplates with 100 uL of capture antibody • c. Seal plates and incubate at RT overnight • d. Wash plates with 300 uL of wash buffer • e. Repeat wash • f. Treat plates with 300 uL of blocking buffer at RT for 1 hour • 3. Addition of compounds: • a. Prepare compound dilutions in RPMI media • i. Top test concentration is 1 uM • ii. Serially dilute compounds 3× for a total of 8 concentrations • b. Add 10 uL of 10× compound dilutions to cells • i. No compounds added in column 11 (for controls) • c. Incubate cells with compounds for 2 hours at 37 C • d. Stimulate cells with SCF for 5 min at concentration of 100 ng/mL (final) • i. In column 11 stimulate top 4 wells. Leave bottom 4 wells unstimulated • e. Remove cell culture media with multichannel pipet • f. Add 110 uL of Lysis buffer to all wells • g. Incubate plates at RT for 30 min while shaking • 4. Transfer 100 uL of cell lysis to each prepared Elisa plate • 5. Add 100 uL of the standard pc-KIT dilutions to the standard wells in column 12 • a. Top concentration=2000 pg/mL • b. 2× dilutions • 6. Incubate ELISA plate with cell lysate for 2 hours at RT • 7. Wash Plate with wash buffer (wash 1) • 8. Repeat wash (wash 2) • 9. […] Add 100 uL of diluted anti-pY-HRP (1/1000 dilution in detection antibody dilution buffer) and incubate 2 hours at RT • 11. Wash plate with wash buffer (wash 1) • 12. Repeat wash (wash 2) • 13. Repeat wash (wash 3) • 14. Add 100 uL of substrate solution to each well • 15. Incubate plates 20 min • Note: Plate development is indicated by aqua color • 16. Add 50 uL of stop solution to each well • 17. Determine optical density on Bitek Synergy Neo2: • a. Make new experiment
Select absorbance 1 set to 450 nm

[8] = molecular target: T4, BCRP (BCRP-MDCKII monolayer) (Homo sapiens, UniProt Q9UNQ0); assay: MDCKII-BCRP bidirectional transport assay; assay type: in vitro ADME
T4 construct: host or cells: MDCKII (canine kidney) cells
T4 sequence (Q9UNQ0 1-655): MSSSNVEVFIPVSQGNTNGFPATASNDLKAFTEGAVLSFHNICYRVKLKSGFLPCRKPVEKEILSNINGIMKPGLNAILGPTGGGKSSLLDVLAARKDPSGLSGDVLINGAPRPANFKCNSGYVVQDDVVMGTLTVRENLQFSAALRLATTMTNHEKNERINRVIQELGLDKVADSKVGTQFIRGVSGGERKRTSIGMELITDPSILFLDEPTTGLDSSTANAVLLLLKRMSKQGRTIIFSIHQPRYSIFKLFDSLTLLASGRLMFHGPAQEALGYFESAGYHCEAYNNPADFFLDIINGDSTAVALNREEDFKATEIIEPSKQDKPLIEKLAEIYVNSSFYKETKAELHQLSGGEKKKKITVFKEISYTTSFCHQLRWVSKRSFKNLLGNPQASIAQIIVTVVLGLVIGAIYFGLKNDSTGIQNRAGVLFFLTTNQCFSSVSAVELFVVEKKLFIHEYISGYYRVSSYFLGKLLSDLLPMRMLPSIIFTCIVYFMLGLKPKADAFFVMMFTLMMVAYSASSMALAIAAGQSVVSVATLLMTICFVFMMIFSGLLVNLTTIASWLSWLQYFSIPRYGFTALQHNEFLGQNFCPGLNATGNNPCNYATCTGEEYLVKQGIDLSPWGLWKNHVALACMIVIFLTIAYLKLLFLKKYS
In short: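 Bidirectional A→B and B→A transport across PreadyPort BCRP-MDCKII monolayers (days 12–15) was run in duplicate for 120 min at 37° C, 5% CO2 after a 15 min preincubation. Compound levels were measured by LC-MS/MS. Papp and recovery were calculated, with efflux ratio indicating transporter engagement.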

T1 sequence (P10721 26-976): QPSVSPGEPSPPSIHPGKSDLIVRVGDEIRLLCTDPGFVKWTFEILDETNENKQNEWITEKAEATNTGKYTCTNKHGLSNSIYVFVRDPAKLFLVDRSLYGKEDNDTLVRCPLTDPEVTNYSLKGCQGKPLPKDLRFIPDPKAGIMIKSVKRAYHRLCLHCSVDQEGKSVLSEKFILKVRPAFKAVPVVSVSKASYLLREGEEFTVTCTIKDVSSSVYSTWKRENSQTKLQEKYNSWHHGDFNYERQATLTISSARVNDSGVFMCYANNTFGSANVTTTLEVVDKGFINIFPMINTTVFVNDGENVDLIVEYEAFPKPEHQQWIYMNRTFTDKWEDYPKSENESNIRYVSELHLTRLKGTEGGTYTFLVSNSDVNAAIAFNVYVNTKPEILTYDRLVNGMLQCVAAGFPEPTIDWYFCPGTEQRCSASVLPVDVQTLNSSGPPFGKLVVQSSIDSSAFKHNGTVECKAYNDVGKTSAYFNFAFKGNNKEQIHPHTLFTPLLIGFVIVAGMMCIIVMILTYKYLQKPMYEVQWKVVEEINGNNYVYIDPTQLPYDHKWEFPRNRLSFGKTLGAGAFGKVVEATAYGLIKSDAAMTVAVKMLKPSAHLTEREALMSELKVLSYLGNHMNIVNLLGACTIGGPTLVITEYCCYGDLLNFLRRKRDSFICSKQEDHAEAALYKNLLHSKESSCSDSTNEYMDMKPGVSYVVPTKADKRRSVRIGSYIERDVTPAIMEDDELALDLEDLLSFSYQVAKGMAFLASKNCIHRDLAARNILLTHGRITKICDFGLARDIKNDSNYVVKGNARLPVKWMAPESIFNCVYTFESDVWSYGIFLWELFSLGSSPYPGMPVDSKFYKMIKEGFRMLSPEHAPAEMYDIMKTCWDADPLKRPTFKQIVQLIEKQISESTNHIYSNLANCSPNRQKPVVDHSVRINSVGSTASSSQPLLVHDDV

Row | SMILES | pIC50 (wtKIT [1]) | Solubility (μM) (Kinetic solubility assay) | pIC50 (CSF-1R [2]) | pIC50 (PDGFRα [3]) | pIC50 (PDGFRα [4]) | pIC50 (CSF-1R [5]) | pIC50 (wtKIT [6]) | pIC50 [7] | MDCK-BCRP: Efflux Ratio [8] | MDCK-BCRP: Papp A-B ([8]; apical to basolateral)
1 | COCc1ccn2c(C(=O)Nc3cc(-c4noc(C)n4)ccc3C)cnc2c1 [Compound I-132] | ≥ 7.30 | **** (a solubility less than or equal to 2 μM) | 4.52 to 5.30 | 5.30 to 6.30 | 5.30 to 6.30 | 5.30 to 6.30 | ≥ 7.30 |  |  | 
2 | Cc1ccc(-c2noc(C3CC(O)C3)n2)cc1NC(=O)c1cnn2cc(-c3ccn(C)n3)ccc12 (centres unmarked) [Compound I-652] |  |  | ≥ 7.30 | 6.30 to 7.30 |  |  | ≥ 7.30 |  |  | 
3 | Cc1nc(-c2ccc(C)c(NC(=O)c3cnc4cc(OCCCN(C(=O)OC(C)(C)C)C5COC5)ccn34)c2)no1 [Compound I-660] |  |  | 6.30 to 7.30 | 5.30 to 6.30 |  |  | ≥ 7.30 |  |  | 
4 | Cc1nc(-c2ccc(F)c(NC(=O)c3cnn4cc(-c5ccn(C)n5)ccc34)c2)no1 [Compound I-657] |  |  | 6.30 to 7.30 | 5.30 to 6.30 |  |  | ≥ 7.30 |  |  | 
5 | COc1ccc2ncc(C(=O)Nc3cc(-c4noc(C[C@H](C)O)n4)ccc3C)n2c1 [Compound I-89] |  |  | 6.30 to 7.30 | 5.30 to 6.30 |  |  | ≥ 7.30 | ≥ 7.30 |  | 
6 | COCCS(=O)(=O)N1CC[C@H]1c1nc(-c2ccc(C)c(NC(=O)c3cnc4ccccn34)c2)no1 [Compound I-189] | 6.30 to 7.30 | ** (a solubility greater than 10 μM and less than or equal to 50 μM) | 5.30 to 6.30 | 5.30 to 6.30 | 5.30 to 6.30 | 6.30 to 7.30 | ≥ 7.30 |  |  | 
7 | Cc1ccc(-c2noc([C@@H]3CCCO3)n2)cc1NC(=O)c1cnc2ccccn12 [Compound I-396] | ≥ 7.30 | **** (a solubility less than or equal to 2 μM) | 6.30 to 7.30 | 5.30 to 6.30 | 5.30 to 6.30 | 6.30 to 7.30 | ≥ 7.30 |  | 2.86 | 8.25 10^−6 cm/s
8 | COCc1ccn2c(C(=O)Nc3cc(-c4noc(C)n4)ccc3F)cnc2c1 [Compound I-658] |  |  | 5.30 to 6.30 | 4.52 to 5.30 |  |  | 5.30 to 6.30 |  |  | 
9 | COCc1ccn2c(C(=O)Nc3cc(-c4noc(C(F)(F)F)n4)ccc3C)cnc2c1 [Compound I-664] |  |  | 6.30 to 7.30 | 5.30 to 6.30 |  |  | 6.30 to 7.30 |  |  | 
10 | Cc1cc(C)c(-c2noc(C3CC3(F)F)n2)cc1NC(=O)c1cnc2ccccn12 (racemic) [Compound I-129] | ≥ 7.30 | **** (a solubility less than or equal to 2 μM) | ≥ 7.30 | 5.30 to 6.30 | 5.30 to 6.30 | ≥ 7.30 | ≥ 7.30 |  |  | 
11 | Cc1ccc(-c2noc([C@H]3CC(F)(F)CN3)n2)cc1NC(=O)c1cnn2ccccc12 [Compound I-243] | ≥ 7.30 | * (a solubility greater than 50 μM) | 6.30 to 7.30 | 6.30 to 7.30 | 6.30 to 7.30 | 6.30 to 7.30 | ≥ 7.30 |  |  | 
